The results in this text go back to BindingDB's records for doi:10.1021/acsmedchemlett.8b00158 (Utah State University, 2018).

This assay in a line: Inhibition of recombinant human Cx26 expressed in Escherichia coli LB2003 assessed as reduction in cell growth measured after 18 hrs.

The IC50 is the concentration at which inhibition is half-maximal. As to `NC[C@H]1O[C@H](O[C@H]2[C@H](O)[C@@H](O[C@@H]3O[C@H](COCc4ccc(Cl)cc4)[C@@H](OCc4ccc(Cl)cc4)[C@H](N)[C@H]3O)[C@H](N)C[C@@H]2N)[C@H](O)[C@@H](O)[C@@H]1O`, the IC50 amounted to 2.5 µM.

For the compound `CCCCCCCCOC[C@H]1O[C@@H](O[C@@H]2[C@@H](O)[C@H](O[C@H]3O[C@H](CN)[C@@H](O)[C@H](O)[C@H]3O)[C@@H](N)C[C@H]2N)[C@H](O)[C@@H](N)[C@@H]1OCCCCCCCC`, the concentration for half-maximal inhibition (IC50) was 13.6 µM.

As to `CCCCOC[C@H]1O[C@@H](O[C@@H]2[C@@H](O)[C@H](O[C@H]3O[C@H](CN)[C@@H](O)[C@H](O)[C@H]3O)[C@@H](N)C[C@H]2N)[C@H](O)[C@@H](N)[C@@H]1OCCCC`, the IC50 amounted to 19 µM.

Regarding `CO[C@@H]1[C@@H](O[C@@H]2O[C@H](COCc3ccccc3)[C@@H](OCc3ccccc3)[C@H](N)[C@H]2OC)[C@H](N)C[C@H](N)[C@H]1O[C@H]1O[C@H](CN)[C@@H](OC)[C@H](OC)[C@H]1OC`, the concentration for half-maximal inhibition (IC50) worked out at 8.4 µM.

Consider `CCCCCCO[C@H]1[C@H](N)[C@@H](O)[C@H](O[C@@H]2[C@@H](O)[C@H](O[C@H]3O[C@H](CN)[C@@H](O)[C@H](O)[C@H]3O)[C@@H](N)C[C@H]2N)O[C@@H]1CO`, for which the IC50 amounted to 13.5 µM.

On to `CCCCCCCCCOC[C@H]1O[C@@H](O[C@@H]2[C@@H](O)[C@H](O[C@H]3O[C@H](CN)[C@@H](O)[C@H](O)[C@H]3O)[C@@H](N)C[C@H]2N)[C@H](O)[C@@H](N)[C@@H]1OCCCCCCCCC`, for which the IC50 amounted to 18.8 µM.

Take `CCCCCCOC[C@H]1O[C@@H](O[C@@H]2[C@@H](O)[C@H](O[C@H]3O[C@H](CN)[C@@H](O)[C@H](O)[C@H]3O)[C@@H](N)C[C@H]2N)[C@H](O)[C@@H](N)[C@@H]1OCCCCCC`: the IC50 amounted to 6.2 µM.

Regarding `NC[C@H]1O[C@H](O[C@H]2[C@H](O)[C@@H](O[C@@H]3O[C@H](COCc4cccc5ccccc45)[C@@H](OCc4cccc5ccccc45)[C@H](N)[C@H]3O)[C@H](N)C[C@@H]2N)[C@H](O)[C@@H](O)[C@@H]1O`, the concentration for half-maximal inhibition (IC50) came to 6.6 µM.

Take `NC[C@H]1O[C@H](O[C@H]2[C@H](O)[C@@H](O[C@@H]3O[C@H](COCc4ccc(F)cc4)[C@@H](OCc4ccc(F)cc4)[C@H](N)[C@H]3O)[C@H](N)C[C@@H]2N)[C@H](O)[C@@H](O)[C@@H]1O`: the IC50 was determined as 8.1 µM.

On to `NC[C@H]1O[C@H](O[C@H]2[C@H](O)[C@@H](O[C@@H]3O[C@H](COCc4ccc5ccccc5c4)[C@@H](OCc4ccc5ccccc5c4)[C@H](N)[C@H]3O)[C@H](N)C[C@@H]2N)[C@H](O)[C@@H](O)[C@@H]1O`, for which the IC50 was 4.9 µM.

As to `Cc1ccc(COC[C@H]2O[C@@H](O[C@@H]3[C@@H](O)[C@H](O[C@H]4O[C@H](CN)[C@@H](O)[C@H](O)[C@H]4O)[C@@H](N)C[C@H]3N)[C@H](O)[C@@H](N)[C@@H]2OCc2ccc(C)cc2)cc1`, the IC50 turned out to be 4.3 µM.

Consider `NC[C@H]1O[C@H](O[C@H]2[C@H](O)[C@@H](O[C@@H]3O[C@H](COCc4cccc(-c5ccccc5)c4)[C@@H](OCc4cccc(-c5ccccc5)c4)[C@H](N)[C@H]3O)[C@H](N)C[C@@H]2N)[C@H](O)[C@@H](O)[C@@H]1O`, for which the IC50 was 6.2 µM.

In the case of `COc1ccc(COC[C@H]2O[C@@H](O[C@@H]3[C@@H](O)[C@H](O[C@H]4O[C@H](CN)[C@@H](O)[C@H](O)[C@H]4O)[C@@H](N)C[C@H]3N)[C@H](O)[C@@H](N)[C@@H]2OCc2ccc(OC)cc2)cc1`, the IC50 was found to be 13 µM.
